Reference: patent publication US20230043394A1, “METHODS FOR DETECTION OF PATHOGENIC ANTIPHOSPHOLIPID ANTIBODIES AND FOR IDENTIFICATION OF INHIBITORS” (UNIVERSITÄTSMEDIZIN DER JOHANNES GUTENBERG-UNIVERSITÄT MAINZ, priority 2019, published 2023)

Experiments:
monocytes = assay: Induction of IFN-regulated genes and TNFα in monocytes by aPL or Tlr7 agonist; format: cell-based, mouse
Protocol: (B) Induction of IFN-regulated genes by aPL. (C) TF and Tnfα mRNA induction by aPL HL5B or HL7G stimulation of CD115+ splenocytes of indicated mice stimulated for 3 hours, as well as early ROS production; mean±SD, n=6; * p<0.0001; one-way ANOVA, Dunnett multiple-comparison test. (D) Live cell imaging of HL5B internalization in monocytes of indicated mouse strains. Bar=5 μm. (E) Live cell imaging of aPL HL5B Fab′2 or IgG colocalization with EPCR using non-inhibitory αEPCR 1489 in human MM1 cells. (F) Internalization of EPCR, FVIIa, and TF in MM1 cells stimulated for 15 minutes similarly required proteases and integrin trafficking. For quantification of internalization, surface staining was quenched with 0.4% trypan blue; mean±SD, n=6. * p<0.0001; one-way ANOVA, Dunnett multiple-comparison test compared to IgG control.
FXa generated by the coagulation initiator TF-FVIIa utilizes the endothelial protein C receptor (EPCR) for protease activated receptor (PAR) 2 cleavage that is specifically required for LPS-induced interferon (IFN) responses (15, 16).

MM1 cells = assay: aPL signaling and internalization in MM1 cells with sphingomyelinase inhibitor; format: cell-based, human
Protocol: (A) aPL-mediated TF activation, PS exposure measured by annexin 5 staining, ROS production and TNFα induction as well as (B) aPL internalization in MM1 cells was blocked by sphingomyelinase inhibitor desipramine. Bar=5 μm. (C) aPL-induced ASM activity in MM1 cells is blocked by inhibitors of FXa, thrombin, and PAR1 cleavage. (D) Live cell imaging of surface ASM exposure in MM1 cells after 30 minutes of stimulation with Fab′2 aPL HLSB. Bar=5 μm. (E) ASM activity in unstimulated cell lysates after addition of sEPCR-LBPA (2.504) is blocked by αEPCR 1682. For all ASM activity assays: mean±SD, n=3. * p<0.0003; one-way ANOVA, Dunnett multiple-comparison test. […] (G, H) Thrombosis induction by dual reactive aPL HL7G in the indicated mouse strains or WT mice in presence of indicated αEPCR. (F-H) Quantification of thrombus size 3 hours after aPL injection; median, interquartile range, and range; n=6-11; * p <0.004; one-way ANOVA, Dunnett multiple-comparison test compared to αEPCR 1650. (I, J) Thrombosis induction by aPL HLSB (I) or IgG isolated from age-matched 16 weeks old lupus-prone MRL/lpr and MRL control mice (J) in the indicated mouse strains. Quantification of thrombus size 3 hours after aPL injection; median, interquartile range, and range; (I) n=6-10; * p=0.001; unpaired t-test. (J) n=5; * p=0.0025; two-way ANOVA, Sidak's multiple comparisons test. […]

[1] = test system: ALIX^−/− trophoblast cells; assay: aPL HL5B binding to ALIX-deficient trophoblast (JAR) cells after adding phospholipids; format: cell-based, human; conditions: 10 μM lipid added
Protocol: (§1) (A) TNFα mRNA induction after 2 hours by HLSB is prevented in Alix-deficient trophoblast cells; mean±SD, n=6. * p<0.0001; t-test following Shapiro-Wilk test for normal distribution. (B, C) Proximity ligation assays (PLA) for ASM and EPCR on scrambled control JARs or ALIX−/− cells after 10 minutes of stimulation with HLSB (B) or thrombin (C) with or without LBPA loading. Bar=25 μm. (D) aPL internalization in ALIX deficient JAR cells and signalling in EPCR^C/S monocytes (E) was restored by adding 10 μM LBPA (S,R) but not by other phospholipids. (F) Pregnancy loss was scored at day 15.5 p.c. after injection of aPL HLSB on days 8 and 12. * p<0.02; one-way ANOVA, Dunnett multiple-comparison test. (G) Schematic representation of aPL signalling leading to thrombosis or pregnancy complications.
Human ALIX^−/− trophoblast cells and murine EPCR^C/S monocytes provided tools to compare the species conservation of lipid presentation by EPCR. Only addition of S/R 18:1 LBPA and R/R 18:1 LBPA, but not S/S 18:1 LBPA or semi-S/R LBPA restored aPL HL5B binding to ALIX^−/− trophoblast cells (FIG. 7D) or signaling in EPCR^C/S monocytes (FIG. 7E). Thus, human and mouse EPCR present LBPA with the same selectivity, providing an explanation for the remarkable species cross-reactivity of pathogenic aPL.

EPCR^C/S monocytes [2] = assay: Lipid supplementation and aPL signalling in EPCR^C/S monocytes; format: cell-based, mouse; conditions: for aPL signaling in EPCR^C/S monocytes after adding LBPA isomers: 10 μM
From the text: (§2) (A) Effect of aPL HL5B, aPL HL7G, and αEPCR antibodies on EPCR-dependent aPC generation on murine microvascular endothelial cells. (B) Effect of anti-mouse EPCR antibodies 1682 and 1650 on Tnfα mRNA induction by aPL HL5B and HL7G; mean±SD, n=6. * p<0.0001; one-way ANOVA, Dunnett multiple-comparison. (C) Effect of αEPCR on aPL HL5B and HL7G internalization in CD115+ splenocytes. Bar=5 μm. (D) Flow cytometry detection of FXa and EPCR on CD115+ spleen monocytes isolated from indicated mouse strains. (E) Effect of pre-treatment with 10 μM LBPA for 10 min on surface binding of αEPCR 1682 and αLBPA 6C4 on indicated monocytes; mean±SD, n=6. * p<0.003; multiple t-tests. (F) Competition of αEPCR 1650 and 1682 with binding of FITC-labelled anti-LBPA antibody 6C4 to mouse CD115+ splenocytes. (G) Competition of αLBPA 6C4 with binding of αEPCR 1682 to mouse monocytes. (H) Effect of LBPA, cardiolipin (CL), and phosphatidylserine (PS) (10 μM) on aPL HLSB signalling in EPCR^C/S monocytes. Induction of TNF after 3 hours is shown; mean±SD, n=6. (I) LBPA loading of purified mouse or human sEPCR evidenced by faster mobility on native gels. (J) Surface plasmon resonance analysis of aPL HLSB binding to purified human sEPCR or sEPCR-LBPA. The affinity calculation was based on a monovalent binding model because no cooperative binding was evident.
as §1, with “(G) Schematic representation of aPL signalling leading to thrombosis or pregnancy complications.” left out

EPCR^C/S pDC = assay: Mouse pDC and B cell co-culture with R848 and aPL HL5B, anti-cardiolipin titers; format: cell-based; conditions: co-cultures with EPCR^C/S pDC
Protocol: (§3) (A) Gbp2 mRNA induction after 1 hour stimulation with HL5B, HL7G, or LPS (100 ng/ml) in EPCR^C/S or WT monocytes with or without addition of LBPA. (B) WT monocytes were stimulated for 1 hour with IgG isolated from MRL/lpr lupus-prone or control MRL mice in the presence of the indicated antibodies to EPCR. (C) Human monocyte-derived DC were co-cultured with B cells in the presence of TLR7/8 agonist R848 and aPL HL5B with the indicated antibodies to human EPCR. Anti-cardiolipin titers were determined after 10 days. (D-F) Co-cultures of isolated spleen plasmacytoid dendritic cells (pDC) and B cells from the indicated mouse strains were co-cultured with Tlr7 agonist R848 and aPL HL5B for 10 days, followed by determination of anti-cardiolipin titers. IFNR^−/−, type I interferon receptor deficient mice.
Supporting this conclusion, anti-cardiolipin antibody production was absent when mouse pDC, but not B cells, were isolated from EPCR^C/S mice (FIG. 9D). Addition of LBPA or interferon a restored the expansion of anti-cardiolipin producing B cells in co-cultures with aPL signaling-deficient EPCR^C/S pDC (FIG. 9D). In contrast, cells deficient in LRP8, the receptor for β2GPI, produced anti-cardiolipin antibodies normally in response to co-stimulation of aPL and Tlr7 agonist (FIG. 9E).

LBPA-loaded EPCR = target: T1, LBPA-loaded EPCR (Mus musculus, UniProt Q64695, C242S); assay: Flow cytometry surface staining of monocytes with αEPCR 1682 and αLBPA 6C4; format: binding; conditions: LBPA added to culture medium, 10 μM, 10 min
T1 construct: endogenous in cells; host or cells: mouse CD115+ spleen monocytes; murine microvascular endothelial cells
T1 sequence (Q64695 18-242 C242S): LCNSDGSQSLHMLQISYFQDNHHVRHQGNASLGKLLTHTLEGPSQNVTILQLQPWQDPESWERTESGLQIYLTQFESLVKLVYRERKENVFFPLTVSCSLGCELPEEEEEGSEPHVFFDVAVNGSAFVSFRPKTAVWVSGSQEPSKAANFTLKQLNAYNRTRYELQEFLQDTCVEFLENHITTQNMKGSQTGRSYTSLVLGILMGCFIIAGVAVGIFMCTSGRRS
From the text: as §2, with “evident. […]” for “evident.”

human trophoblast cells = assay: TNFα mRNA induction by HLSB in ALIX knock-down trophoblast cells; format: cell-based; conditions: extracellular LBPA supplemented
Protocol: as §1
The importance of this pathway in human trophoblast cells by knock-down of ALIX (FIG. 8A) was evaluated, which is required for normal lysosomal functioning. ALIX knock-down diminished LBPA cell surface presentation, but not EPCR expression (FIG. 8B) and abolished aPL-induced, but not TNFα-induced proinflammatory effects.

EPCR^C/S monocytes [3] = assay: Gbp2 mRNA induction by aPL in EPCR^C/S monocytes; format: cell-based, mouse; conditions: 1 hour stimulation with aPL
Protocol: as §3
Further, it was investigated whether the identified target for lipid-reactive aPL contributes to the development of autoimmunity. Upregulation of interferon responses in circulating immune cells are linked to the development of APS (38, 39). […] In addition, IgG isolated from MRL/lpr lupus erythematosus mice, but not MRL control mice induced interferon responses dependent on EPCR-LPBA in monocytes (FIG. 9B).

[4] = test system: acidic sphingomyelinase (ASM); assay: ASM activity in CD115+ spleen monocytes stimulated with aPL HLSB; format: cell-based, mouse; conditions: EPCR^C/S monocytes, LBPA 10 μM
Protocol: (A) WT CD115+ spleen monocyte induction of ASM activity after 15 minutes aPL HLSB stimulation with the indicated inhibitors. (B) LBPA (10 μM) loading of EPCR^C/S cells enabled ASM activation in CD115+ monocytes stimulated with HLSB.
ASM requires LBPA for activity (33). […] Thrombin stimulation to induce ASM surface expression was sufficient to trigger ASM activation that was blocked by extracellular addition of αEPCR-LBPA 1682 (FIG. 6C). TfpiΔK1 cells expressed LBPA-loaded EPCR (FIG. 3D), but lack surface FXa to trigger thrombin generation. […] In turn, ASM modification of surface lipid modification is required for endosomal trafficking and signaling of EPCR-bound aPL.

[5] = test system: acidic sphingomyelinase (ASM); assay: ASM activity in unstimulated cell lysates after addition of sEPCR-LBPA; format: biochemical
Protocol: (A) aPL-mediated TF activation, PS exposure measured by annexin 5 staining, ROS production and TNFα induction as well as (B) aPL internalization in MM1 cells was blocked by sphingomyelinase inhibitor desipramine. Bar=5 μm. (C) aPL-induced ASM activity in MM1 cells is blocked by inhibitors of FXa, thrombin, and PAR1 cleavage. (D) Live cell imaging of surface ASM exposure in MM1 cells after 30 minutes of stimulation with Fab′2 aPL HLSB. Bar=5 μm. (E) ASM activity in unstimulated cell lysates after addition of sEPCR-LBPA (2.504) is blocked by αEPCR 1682. For all ASM activity assays: mean±SD, n=3. * p<0.0003; one-way ANOVA, Dunnett multiple-comparison test. […] (G, H) Thrombosis induction by dual reactive aPL HL7G in the indicated mouse strains or WT mice in presence of indicated αEPCR. (F-H) Quantification of thrombus size 3 hours after aPL injection; median, interquartile range, and range; n=6-11; * p <0.004; one-way ANOVA, Dunnett multiple-comparison test compared to αEPCR 1650. (I, J) Thrombosis induction by aPL HLSB (I) or IgG isolated from age-matched 16 weeks old lupus-prone MRL/lpr and MRL control mice (J) in the indicated mouse strains. Quantification of thrombus size 3 hours after aPL injection; median, interquartile range, and range; (I) n=6-10; * p=0.001; unpaired t-test. (J) n=5; * p=0.0025; two-way ANOVA, Sidak's multiple comparisons test.
ASM requires LBPA for activity (33). […]

CCOCc1nc2c(N)nc3ccccc3c2n1CC(C)(C)O [R848]
induction of TNFα (monocytes): upregulated only TNFα

CNCCCN1c2ccccc2CCc2ccccc21 [desipramine]
aPL internalization (MM1 cells): blocked | aPL-mediated TF activation, PS exposure, ROS production and TNFα induction (MM1 cells): blocked

R/R 18:1 LBPA
aPL HL5B binding to ALIX^−/− trophoblast cells [1]: restored | aPL signaling in EPCR^C/S monocytes after adding LBPA isomers (EPCR^C/S monocytes [2]): restored

S/R 18:1 LBPA
aPL HL5B binding to ALIX^−/− trophoblast cells [1]: restored | aPL signaling in EPCR^C/S monocytes after adding LBPA isomers (EPCR^C/S monocytes [2]): restored

interferon a
expansion of anti-cardiolipin producing B cells (EPCR^C/S pDC): restored

lysobisphosphatidic acid [LBPA]
aPL pro-inflammatory signaling of EPCR^C/S cells after lipid supplementation (EPCR^C/S monocytes [2]; 10 μM lipid, TNF induction after 3 hours): restored aPL pro-inflammatory signaling | cell surface αLBPA 6C4 and αEPCR 1682 staining of EPCR^C/S cells (LBPA-loaded EPCR): restored | aPL signaling in ALIX knock-down trophoblast cells (human trophoblast cells): restored aPL signaling | expansion of anti-cardiolipin producing B cells (EPCR^C/S pDC): restored | interferon responses (GBP2) in EPCR^C/S monocytes (EPCR^C/S monocytes [3]): restored interferon responses | ASM activation by aPL after extracellular addition of LBPA [4]: restored ASM activation

B1: EPCR-LBPA: purified soluble EPCR loaded with LBPA by lipid exchange (protein, UniProt Q9UNN8 18-210, looked up)
extracellular domain: SQDASDGLQRLHMLQISYFRDPYHVWYQGNASLGGHLTHVLEGPDTNTTIIQLQPLQEPESWARTQSGLQSYLLQFHGLVRLVHQERTLAFPLTIRCFLGCELPPEGSRAHVFFEVAVNGSSFVSFRPERALWQADTQVTSGVVTFTLQQLNAYNRTRYELREFLEDTCVQYVQKHISAENTKGSQTSRSYTS
modifications: extracellular domain loaded with LBPA lipid
notes: purified soluble EPCR loaded with LBPA by lipid exchange
induction of ASM activity in cell lysates of unstimulated cells [5]: efficiently induced ASM activity
